# Test results: patent US20260232682A1, “GSPT1 DEGRADER COMPOUNDS” (Captor Therapeutics S.A., priority 2023, published 2026)
# Key:
# [1] = target: [GSPT1]-[compound of formula (I)]-[CRBN/DDB1] complex (Homo sapiens, UniProt P15170+Q96SW2); test: AlphaLISA ternary complex formation assay (GSPT1); type: binding; settings: 0.5 h; 1 μM compound; normalized to reference compound CC-885; read-out: Normalized AlphaLISA ternary complex average signal at 1 μM molecule
# Outline: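 Biotinylated GSPT1 on streptavidin donor beads and 6×His-CRBN/DDB1 on anti-His acceptor beads (each 200 nM before mixing) in HBS pH 7.4 with 0.1% Tween-20 and 1 mM DTT, 2% DMSO final, 30 min at 25 °C. AlphaLISA luminescence is normalized between DMSO background and the reference compound's maximum.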
# GSPT1-HiBiT HEK293 cells = test: Cell Viability-CTG assay accompanying the Nano-Glo HiBiT assay; type: cell-based; settings: 6 hours treatment, viability of GSPT1-HiBiT HEK293 cells
# Method: In parallel, the Cell Viability-CTG assay was performed to ensure that the potential decrease of the luminescent signal observed in the Nano-Glo HiBiT assay is a result of protein degradation and not a result of decreasing cell viability. For CTG assay accompanying the Nano-Glo HiBiT assay, cells were cultured, seeded and treated as described above. After 6 hours of incubation (37° C., 5% CO2), plates were removed from the incubator and let to equilibrate to RT. Luminescent signal detection was conducted using the CellTiter-Glo Lumiescent Cell Viability Assay (Promega, cat. nr G7573). 10 μL of the Cell Titer Glo reagent was added per well, plates were shaken to facilitate lysis (460 rpm, 4 min, RT) and incubated in the dark for the following 8 min. Luminescence was read using the CLARIOstar multimode plate reader (BMG LABTECH). The raw data (the relative luminescence unit values, RLU) were uploaded under the relevant protocol and analysed in CDDVault data management platform, in a manner similar to the description above. The Mean Minimum values were calculated in CDDVault using non-linear regression and appropriate equations.
# [2] = target: T1, GSPT1-HiBiT protein in GSPT1-HiBiT HEK293 cells (Homo sapiens, UniProt P15170+Q96SW2); test: GSPT1 degradation assay using HiBiT system (Nano-Glo HiBiT lytic assay); type: cell-based; settings: 6 hours treatment; for DC50: read-out: HiBiT lytic assay Geomean absolute DC50
# T1 construct: endogenous in cells; host or cells: HEK293 (CRISPR/Cas9 knock-in of HiBiT at the GSPT1 locus)
# Excerpt: The effect of selected compounds of the invention on GSPT1 protein levels was investigated, using the GSPT1-HiBiT HEK293 cell line and the Nano-Glo HiBiT degradation assay protocol below.
# GSPT1-HiBiT HEK293 cells were generated in-house using the HEK293 parental cells (ATCC, cat. no 70016364) and the CRISPR/Cas9 system. HEK293 cells were transformed with pSpCas9-BB-2A-Puro v2.0 plasmid carrying gRNA targeting the C-terminus of GSPT1 and ssODN template containing the HiBiT tag sequence with flanking homology sequences. Neon Transfection System (Thermo Fisher Scientific) was used for electroporation. HEK293 GSPT1-HiBiT cells were cultured with DMEM Glutamax (Gibco) supplemented with 10% heat inactivated FBS (Gibco). After transfection the culture medium was changed to DMEM Glutamax with 10% heat-inactivated FBS and 1% Penicillin-Streptomycin (Biowest) supplemented with Puromycin (2 μg/ml; Invivogen) for clonal selection. In order to isolate single cell clones for further validation and analysis, limiting dilution cloning in 96-well plates was performed. When the single clones reached confluency, HiBiT Lytic Assay (Promega) was performed in order to identify HiBiT positive clones. The clone selected for further studies was verified and validated using genotyping and HiBiT Blotting (Promega).
# Cells were maintained in DMEM Glutamax medium, supplemented with 1% penicillin/streptomycin and 10% Fetal Bovine Serum (FBS) at 37° C., 5% CO2. Compounds were stored frozen as 20 mM DMSO stocks.
# For the Nano-Glo HiBiT assay, cells were seeded onto 384-well white solid bottom plate at 2×10^3 cells/well in 40 μL using the Agilent BioTek MultiFlo FX Multimode Dispenser and incubated overnight. Following overnight incubation (37° C., 5% CO2) cells were treated with the test compounds and vehicle only (DMSO) control using the Echo 555 Liquid Handler. Twelve data-point compound titration curve with concentrations ranging from 10 μM to 0.03 nM was used. Final DMSO concentration was kept constant at 0.25% v/v across the assay plate. After 6 hours of incubation (37° C., 5% CO2), plates were removed from the incubator and let to equilibrate to RT. Luminescent signal detection was conducted using the Nano-Glo HiBiT Lytic Detection System (Promega, cat. nr N3050). Nano-Glo HiBiT Lytic Reagent was prepared freshly by diluting the LgBiT Protein (1:100 vol/vol) and the Nano-Glo HiBiT Lytic Substrate (1:50 vol/vol) in the relevant volume of the Nano-Glo HiBiT Lytic Buffer. 40 μL of the HiBiT Lytic Reagent was added per well, plates were shaken to facilitate lysis (350 rpm, 5 min, RT) and incubated in the dark for the following 10 min. Luminescence was read using the PHERAstar multimode plate reader (BMG LABTECH). The raw data (the relative luminescence unit values, RLU) were uploaded under the relevant protocol and analysed in CDDVault data management platform. Luminescence (RLU) values were normalized to the controls, and reported absolute DC50 values and Dmax values were calculated in CDDVault using non-linear regression and appropriate equations.
# T1 sequence (P15170 whole entry): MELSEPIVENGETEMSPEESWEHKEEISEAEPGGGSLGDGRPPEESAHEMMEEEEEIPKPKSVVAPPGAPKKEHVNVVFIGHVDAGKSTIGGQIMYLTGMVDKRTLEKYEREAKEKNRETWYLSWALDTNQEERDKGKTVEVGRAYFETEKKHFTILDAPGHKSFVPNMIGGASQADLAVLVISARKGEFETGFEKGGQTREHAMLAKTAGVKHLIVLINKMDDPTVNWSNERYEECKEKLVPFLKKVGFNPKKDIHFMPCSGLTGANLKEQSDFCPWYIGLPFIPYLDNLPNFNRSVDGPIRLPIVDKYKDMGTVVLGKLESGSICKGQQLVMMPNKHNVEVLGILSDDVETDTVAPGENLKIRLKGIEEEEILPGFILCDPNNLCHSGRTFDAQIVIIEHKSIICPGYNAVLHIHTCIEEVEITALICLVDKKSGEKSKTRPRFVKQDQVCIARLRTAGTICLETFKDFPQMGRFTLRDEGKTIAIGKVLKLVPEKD
# T1 sequence (Q96SW2 whole entry): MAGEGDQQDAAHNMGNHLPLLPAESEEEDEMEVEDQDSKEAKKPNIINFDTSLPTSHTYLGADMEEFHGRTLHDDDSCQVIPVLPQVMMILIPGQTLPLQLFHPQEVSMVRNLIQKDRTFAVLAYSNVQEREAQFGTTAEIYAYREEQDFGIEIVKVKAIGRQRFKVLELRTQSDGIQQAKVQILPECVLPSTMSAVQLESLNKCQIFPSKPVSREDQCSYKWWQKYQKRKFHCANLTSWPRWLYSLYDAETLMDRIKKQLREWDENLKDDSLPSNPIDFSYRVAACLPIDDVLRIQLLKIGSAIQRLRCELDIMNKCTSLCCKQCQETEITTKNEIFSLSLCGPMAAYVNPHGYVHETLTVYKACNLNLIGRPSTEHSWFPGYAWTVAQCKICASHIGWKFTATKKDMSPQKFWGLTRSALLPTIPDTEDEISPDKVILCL
# T1 sequence (Q16531 whole entry partner): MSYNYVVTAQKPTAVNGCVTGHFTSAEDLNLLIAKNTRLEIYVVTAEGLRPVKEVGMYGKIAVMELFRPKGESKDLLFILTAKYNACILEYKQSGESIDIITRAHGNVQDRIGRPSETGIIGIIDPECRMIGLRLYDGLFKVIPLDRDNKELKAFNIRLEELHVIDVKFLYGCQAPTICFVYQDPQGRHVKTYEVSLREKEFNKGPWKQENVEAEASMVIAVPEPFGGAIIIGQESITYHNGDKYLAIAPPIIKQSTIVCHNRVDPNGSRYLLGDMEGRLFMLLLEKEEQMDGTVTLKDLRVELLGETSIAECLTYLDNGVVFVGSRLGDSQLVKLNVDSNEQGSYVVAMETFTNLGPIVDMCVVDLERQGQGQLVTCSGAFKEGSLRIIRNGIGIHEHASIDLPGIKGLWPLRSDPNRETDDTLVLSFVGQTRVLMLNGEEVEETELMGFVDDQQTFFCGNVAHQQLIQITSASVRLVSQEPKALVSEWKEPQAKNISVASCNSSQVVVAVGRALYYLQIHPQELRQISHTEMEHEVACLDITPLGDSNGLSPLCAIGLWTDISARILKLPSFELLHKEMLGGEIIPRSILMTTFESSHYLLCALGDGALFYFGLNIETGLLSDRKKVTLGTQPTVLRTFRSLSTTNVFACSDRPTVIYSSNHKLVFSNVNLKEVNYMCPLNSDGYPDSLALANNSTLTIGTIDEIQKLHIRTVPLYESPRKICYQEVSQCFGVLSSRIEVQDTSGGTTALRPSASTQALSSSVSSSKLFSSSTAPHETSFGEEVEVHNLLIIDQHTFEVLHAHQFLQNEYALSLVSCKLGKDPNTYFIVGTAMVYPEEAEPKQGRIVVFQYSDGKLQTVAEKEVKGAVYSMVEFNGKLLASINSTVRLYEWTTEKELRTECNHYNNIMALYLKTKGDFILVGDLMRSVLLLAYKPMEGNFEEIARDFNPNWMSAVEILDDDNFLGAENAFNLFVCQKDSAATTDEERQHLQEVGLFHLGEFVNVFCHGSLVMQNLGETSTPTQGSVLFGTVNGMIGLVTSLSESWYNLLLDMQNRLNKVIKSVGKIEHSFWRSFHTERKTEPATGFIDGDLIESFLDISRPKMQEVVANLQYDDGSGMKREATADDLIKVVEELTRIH
# [GSPT1]-[compound of formula (I)]-[CRBN/DDB1] complex, sequence (P15170 whole entry): as the sequence (P15170 whole entry) above
# [GSPT1]-[compound of formula (I)]-[CRBN/DDB1] complex, sequence (Q96SW2 whole entry): as the sequence (Q96SW2 whole entry) above
# [GSPT1]-[compound of formula (I)]-[CRBN/DDB1] complex, sequence (Q16531 whole entry partner): as the sequence (Q16531 whole entry partner) above
smiles,measurement,setting,value
"Cc1ccc(NC(=O)OCc2ccc3cc([C@@H]4CCC(=O)NC4=O)c(C)nc3c2)cc1Cl [Compound 38, (3-(2,6-dioxopiperidin-3-yl)-2-methylquinolin-7-yl)methyl (3-chloro-4-methylphenyl)carbamate]",activation at 1 µM,[1],< 10%
same,CTG assay Mean minimum,GSPT1-HiBiT HEK293 cells,++++ (++++≥75% of viability of the HiBiT-GSPT1 HEK293 cells)
same,Dmax,[2],≥ 75%
same,DC50,[2],50 to 100 nM
"Cc1ccc(NC(=O)OCc2ccc3cc([C@H]4CCC(=O)NC4=O)c(C)nc3c2)cc1Cl [Compound 39, (3-(2,6-dioxopiperidin-3-yl)-2-methylquinolin-7-yl)methyl (3-chloro-4-methylphenyl)carbamate]",activation at 1 µM,[1],> 50%
same,CTG assay Mean minimum,GSPT1-HiBiT HEK293 cells,++++ (++++≥75% of viability of the HiBiT-GSPT1 HEK293 cells)
same,Dmax,[2],≥ 75%
same,DC50,[2],< 10 nM
"Cc1nc2cc(COC(=O)Nc3ccc(N4CCOCC4)nc3)ccc2cc1C1CCC(=O)NC1=O (stereo not shown) [Compound 42, (3-(2,6-dioxopiperidin-3-yl)-2-methylquinolin-7-yl)methyl (6-morpholinopyridin-3-yl)carbamate]",activation at 1 µM,[1],> 50%
same,CTG assay Mean minimum,GSPT1-HiBiT HEK293 cells,++++ (++++≥75% of viability of the HiBiT-GSPT1 HEK293 cells)
same,Dmax,[2],≥ 75%
same,DC50,[2],10 to 50 nM
"Cc1ccc(NC(=O)OCc2ccc3c(C)c(C4CCC(=O)NC4=O)c(C)nc3c2)cc1Cl (stereo not shown) [Compound 44, (3-(2,6-dioxopiperidin-3-yl)-2,4-dimethylquinolin-7-yl)methyl (3-chloro-4-methylphenyl)carbamate]",activation at 1 µM,[1],10 to 50%
same,CTG assay Mean minimum,GSPT1-HiBiT HEK293 cells,++++ (++++≥75% of viability of the HiBiT-GSPT1 HEK293 cells)
same,Dmax,[2],≥ 75%
same,DC50,[2],< 10 nM
"COc1ccc(NC(=O)OCc2ccc3cc(C4CCC(=O)NC4=O)c(C)nc3c2)nn1 (stereo not shown) [Compound 45, (3-(2,6-dioxopiperidin-3-yl)-2-methylquinolin-7-yl)methyl (6-methoxypyridazin-3-yl)carbamate]",activation at 1 µM,[1],10 to 50%
same,CTG assay Mean minimum,GSPT1-HiBiT HEK293 cells,++++ (++++≥75% of viability of the HiBiT-GSPT1 HEK293 cells)
same,Dmax,[2],≥ 75%
same,DC50,[2],10 to 50 nM
"Cc1nc2cc(COC(=O)Nc3cccc(-c4ccccc4)c3)ccc2cc1C1CCC(=O)NC1=O (stereo not shown) [Compound 46, (3-(2,6-dioxopiperidin-3-yl)-2-methylquinolin-7-yl)methyl [1,1′-biphenyl]-3-ylcarbamate]",activation at 1 µM,[1],10 to 50%
same,CTG assay Mean minimum,GSPT1-HiBiT HEK293 cells,++++ (++++≥75% of viability of the HiBiT-GSPT1 HEK293 cells)
same,Dmax,[2],≥ 75%
same,DC50,[2],10 to 50 nM
"Cc1ccc(NC(=O)OCc2cc3nc(C)c(C4CCC(=O)NC4=O)cc3cc2F)cc1Cl (stereo not shown) [Compound 49, (3-(2,6-dioxopiperidin-3-yl)-6-fluoro-2-methylquinolin-7-yl)methyl (3-chloro-4-methylphenyl)carbamate]",activation at 1 µM,[1],10 to 50%
same,CTG assay Mean minimum,GSPT1-HiBiT HEK293 cells,++++ (++++≥75% of viability of the HiBiT-GSPT1 HEK293 cells)
same,Dmax,[2],≥ 75%
same,DC50,[2],50 to 100 nM
"Cc1ccc(NC(=O)OCc2ccc3cc(C4CCC(=O)NC4=O)c(C)nc3c2F)cc1Cl (stereo not shown) [Compound 50, (3-(2,6-dioxopiperidin-3-yl)-8-fluoro-2-methylquinolin-7-yl)methyl (3-chloro-4-methylphenyl)carbamate]",activation at 1 µM,[1],> 50%
same,CTG assay Mean minimum,GSPT1-HiBiT HEK293 cells,++++ (++++≥75% of viability of the HiBiT-GSPT1 HEK293 cells)
same,Dmax,[2],≥ 75%
same,DC50,[2],10 to 50 nM
"Cc1ccc(NC(=O)NCc2ccc3nc(C)c(N4CCC(=O)NC4=O)cc3c2)cc1Cl [Compound 51, 1-(3-chloro-4-methylphenyl)-3-((3-(2,4-dioxotetrahydropyrimidin-1(2H)-yl)-2-methylquinolin-6-yl)methyl)urea]",activation at 1 µM,[1],10 to 50%
same,CTG assay Mean minimum,GSPT1-HiBiT HEK293 cells,++++ (++++≥75% of viability of the HiBiT-GSPT1 HEK293 cells)
same,Dmax,[2],≥ 75%
same,DC50,[2],10 to 50 nM
"Cc1ccc(NC(=O)OCc2ccc3cc(C4CCC(=O)NC4=O)c(C)nc3c2)c(Cl)c1Cl (stereo not shown) [Compound 54, (3-(2,6-dioxopiperidin-3-yl)-2-methylquinolin-7-yl)methyl (2,3-dichloro-4-methylphenyl)carbamate]",activation at 1 µM,[1],> 50%
same,CTG assay Mean minimum,GSPT1-HiBiT HEK293 cells,++++ (++++≥75% of viability of the HiBiT-GSPT1 HEK293 cells)
same,Dmax,[2],≥ 75%
same,DC50,[2],10 to 50 nM
"Cc1nc2cc(COC(=O)NC3CCC(C(C)(C)C)CC3)ccc2cc1C1CCC(=O)NC1=O (stereo not shown) [Compound 55, (3-(2,6-dioxopiperidin-3-yl)-2-methylquinolin-7-yl)methyl (4-(tert-butyl)cyclohexyl)carbamate]",activation at 1 µM,[1],> 50%
same,CTG assay Mean minimum,GSPT1-HiBiT HEK293 cells,++++ (++++≥75% of viability of the HiBiT-GSPT1 HEK293 cells)
same,Dmax,[2],≥ 75%
same,DC50,[2],10 to 50 nM
"Cc1ncc(NC(=O)OCc2ccc3cc(C4CCC(=O)NC4=O)c(C)nc3c2)cc1Cl (stereo not shown) [Compound 58, (3-(2,6-dioxopiperidin-3-yl)-2-methylquinolin-7-yl)methyl (5-chloro-6-methylpyridin-3-yl)carbamate]",activation at 1 µM,[1],> 50%
same,CTG assay Mean minimum,GSPT1-HiBiT HEK293 cells,++++ (++++≥75% of viability of the HiBiT-GSPT1 HEK293 cells)
same,Dmax,[2],≥ 75%
same,DC50,[2],< 10 nM
"COc1cnc(NC(=O)OCc2ccc3cc(C4CCC(=O)NC4=O)c(C)nc3c2)cn1 (stereo not shown) [Compound 59, (3-(2,6-dioxopiperidin-3-yl)-2-methylquinolin-7-yl)methyl (5-methoxypyrazin-2-yl)carbamate]",activation at 1 µM,[1],> 50%
same,CTG assay Mean minimum,GSPT1-HiBiT HEK293 cells,++++ (++++≥75% of viability of the HiBiT-GSPT1 HEK293 cells)
same,Dmax,[2],≥ 75%
same,DC50,[2],10 to 50 nM
"Cc1nc2cc(CNC(=O)Nc3cc(C(C)(C)C)no3)ccc2cc1N1CCC(=O)NC1=O [Compound 64, 1-(3-(tert-butyl)isoxazol-5-yl)-3-((3-(2,4-dioxotetrahydropyrimidin-1(2H)-yl)-2-methylquinolin-7-yl)methyl)urea]",activation at 1 µM,[1],10 to 50%
same,CTG assay Mean minimum,GSPT1-HiBiT HEK293 cells,++++ (++++≥75% of viability of the HiBiT-GSPT1 HEK293 cells)
same,Dmax,[2],≥ 75%
same,DC50,[2],> 100 nM
"Cc1nc2ccc(COC(=O)Nc3cc(C(C)(C)C)no3)cc2cc1N1CCC(=O)NC1=O [Compound 66, (3-(2,4-dioxotetrahydropyrimidin-1(2H)-yl)-2-methylquinolin-6-yl)methyl (3-(tert-butyl)isoxazol-5-yl)carbamate]",activation at 1 µM,[1],> 50%
same,CTG assay Mean minimum,GSPT1-HiBiT HEK293 cells,++++ (++++≥75% of viability of the HiBiT-GSPT1 HEK293 cells)
same,Dmax,[2],≥ 75%
same,DC50,[2],10 to 50 nM
"Cc1nc2ccc(CNC(=O)Nc3cc(C(C)(C)C)no3)cc2cc1N1CCC(=O)NC1=O [Compound 67, 1-(3-(tert-butyl)isoxazol-5-yl)-3-((3-(2,4-dioxotetrahydropyrimidin-1(2H)-yl)-2-methylquinolin-6-yl)methyl)urea]",activation at 1 µM,[1],> 50%
same,CTG assay Mean minimum,GSPT1-HiBiT HEK293 cells,++++ (++++≥75% of viability of the HiBiT-GSPT1 HEK293 cells)
same,Dmax,[2],≥ 75%
same,DC50,[2],10 to 50 nM
